Source: patent publication US8592421B2, “Cyclic bioisosters of purine system derivatives and a pharmaceutical composition based thereon” (priority 2003, dated 2013)

Columns and labels:
[1] = Morphine abstinence model: indicator enzymes ALT, AST, γ-GTP in blood plasma; settings: 20.0 mg/kg intramuscularly three times a day; for γ-GTP in blood plasma, Ci: control 6.261 ± 1.80; for ALT in blood plasma, Ci: control 106.76 ± 111.35; for AST in blood plasma, Ci: control 179.881 ± 11.94
Procedure: (§1) The experiments were carried out on rats in series of 7 animals on each compound according to the invention. Non-morphinized animal with not administered with compounds according to the invention were used as a control group. […] Then the rats were decapitated, the blood from somnolent arteries was collected in test tubes with solution EDTA as an anticoagulant, centrifuged at 1500 g for 15 minutes at 4° C.
To estimate possible hepatoprotective action of the compounds according to the invention under conditions of development of an oxidizing stress in the liver cells, effect of these compounds on the most important biochemical blood indexes, in particular, on the content in blood plasma of indicator enzyme of aspartateaminotransferase (AST), alanineaminotransferase (ALT), γ-glutamiletranspeptidase (γ-GTP) was investigated. The content of enzymes was estimated by their catalyzing activity in blood plasma.
The activity of AST, ALT and γ-GTP was determined by means of diagnostic sets DiaSys, Germany.

[2] = Morphine abstinence model: nitrites/nitrates NOX− in blood plasma, liver and brain; format: in vivo, rats Wistar; settings: 20.0 mg/kg intramuscularly; for Nitrites in liver: control 0.260 ± 0.023; for Nitrites in brain: Cortex of cerebrum: control 4.63 ± 0.29; for Nitrites in brain: Mesencephalon: control 5.66 ± 0.19; for Nitrites in brain: Hypothalamus: control 6.57 ± 0.50; for Nitrites in blood plasma: control 18.30 ± 2.14
Procedure: as §1
To estimate the intensity of metabolism of nitrogen oxide in rats, quantitative determination of stable metabolites of nitrogen oxide—nitrites and nitrates NOX^− in the blood plasma, supernatanates of the liver and thymus gland, a study was conducted by a spectrometric method, and in the brain supernatanates by a […] method.
The spectrometric method is based the reaction of nitrites with the Griss reagent (a mixture of 2% solution of sulfanilamide and 0.2% N-(1-naphthyl)ethylene diamine. At the first step the nitrite reacts with sulfanilamide with formation of diazonium salt, and then with the second component to form azo dye with an adsorption maximum at 540 nm. For reduction of nitrates into nitrites, a fermentative method was used with bacterial reductase nitrate (Grisham M. B. et al., 1995). The samples of plasma and supernathant of the liver deproteinizated at 100° C. for 5 minutes incubated for 30 minutes at 37° C. in 50.0 mM of HEPES pH 7.4 in the presence of 0.2 unit/ml of Aspergillus reductase nitrate, 5.0 mkM of FAD and 0.1 mM of NAD-Ph. At the end of the reaction lactate dehydrogenase and pyruvate were added for isolation of NAD-Ph interfering with the Griss reaction. Then the Griss reagent was added and after 10-minute incubation the light absorption of the samples was measured at 540 nm. To amount of NOX^− was calculated using sodium nitrate as a standard.
The fluorometric method is based on calculation of the nitrite level by the intensity fluorescence of 2,3-diaminonaphthotriazole, a product of reaction of 2,3-diaminonaphthalene (DAN) and nitrite in an acidic medium (Misko T. R., Schilling R. J., Salvemini D. et al. “A fluorometric assay for the measurement of nitrite of biological samples”. Anal. Biochem., 1993, v. 214, p. 11-16). The brain supernatants deproteinizated at 100° C. were placed in a nitrite regenerating system containing 0.125 unit/ml of nitrate reductases, 25 mkM NADPh and 25 mkM FAD prepared in a 20-mM Tris-HCl buffer with pH 7.6 and incubated for 30 minutes at 37° C. The lactate dehydrogenase/pyruvate system was used for oxidation of the NADPh. Then 316 mkM of the DAN solution in 0.62 M of hydrochloric acids were added and the mixture was incubated for 10 minutes in darkness.
280 mM of NaOH were added for stabilization of the fluorescence of the formed 2,3-diaminonaphthotriazole. The fluorescence intensity was measured in the spectrofluorimeter Hitachi F-3000 at a wavelength of excitation of 365 nm and an emission of 405 nm. The concentration of NOX^− in the brain was calculated by means of a standard solution of sodium nitrate.

[3] = tested on: synthase of nitrogen oxide (NOC); assay: Morphine abstinence model: activity of synthase of nitrogen oxide (NOC), radiometric [3H]L-citrulline method; format: in vivo, rats Wistar; settings: 20.0 mg/kg intramuscularly; for Activity of NOC: Mesencephalon: control 2.18 ± 0.09; for Activity of NOC: Hypothalamus: control 5.37 ± 0.20
[4] = Chronic toxicity of suppositories: indexes of urine; format: in vivo, rats; settings: rat, in vivo
Procedure: The experiments were conducted on inbred rats.

Structure (SMILES) | γ-GTP in blood plasma, Ci ([1]; Control + compound) | ALT in blood plasma, Ci ([1]; Control + compound) | AST in blood plasma, Ci ([1]; Control + compound) | γ-GTP in blood plasma, Ci ([1]; control + Morphine + Compound) | ALT in blood plasma, Ci ([1]; control + Morphine + Compound) | AST in blood plasma, Ci ([1]; control + Morphine + Compound) | Nitrites in liver ([2]; Control + Compound) | Nitrites in brain: Cortex of cerebrum ([2]; Control + Compound) | Nitrites in brain: Mesencephalon ([2]; Control + Compound) | Nitrites in brain: Hypothalamus ([2]; Control + Compound) | Nitrites in blood plasma ([2]; Control + Compound) | Nitrites in liver ([2]; Control + Morphine + compound) | Nitrites in brain: Cortex of cerebrum ([2]; Control + Morphine + compound) | Nitrites in brain: Mesencephalon ([2]; Control + Morphine + compound) | Nitrites in brain: Hypothalamus ([2]; Control + Morphine + compound) | Nitrites in blood plasma ([2]; Control + Morphine + compound) | Activity of NOC: Mesencephalon ([3]; Control + Compound) | Activity of NOC: Hypothalamus ([3]; Control + Compound) | Activity of NOC: Mesencephalon ([3]; Control + Morphine + compound) | Activity of NOC: Hypothalamus ([3]; Control + Morphine + compound) | further results
O=c1[nH][nH]c(=O)c2nccnc12.[Li] [Compound 25, lithium salt of pyrazine[2,3-d]-6H-pyridazine-5,8-dione] | 7.57 ± 1.93 mE/l | 115.27 ± 1.09 mE/l | 177.34 ± 6.13 mE/l | 11.37 ± 1.54 mE/l | 121.96 ± 3.4 mE/l | 196.46 ± 15.34 mE/l | 0.307 ± 0.012 nmol/mg of protein | 4.47 ± 0.43 nmol/mg of protein | 6.98 ± 1.02 nmol/mg of protein | 6.87 ± 0.80 nmol/mg of protein | 17.10 ± 2.05 mkmol/ml | 0.287 ± 0.01 nmol/mg of protein | 4.91 ± 0.32 nmol/mg of protein | 5.91 ± 0.74 nmol/mg of protein | 6.67 ± 0.79 nmol/mg of protein | 16.78 ± 2.11 mkmol/ml | 2.65 ± 0.43 pmol/min/mg of protein | 5.88 ± 0.27 pmol/min/mg of protein | 1.97 ± 0.27 pmol/min/mg of protein | 5.23 ± 0.27 pmol/min/mg of protein | 
O=c1[nH][nH]c(=O)c2ncccc12.[Li] [Compound 6, lithium salt of pyrido[2,3-d]-6H-pyridazine-5,8-dione] | 8.27 ± 2.12 mE/l | 114.5 ± 1.13 mE/l | 176.18 ± 3.26 mE/l | 12.52 ± 2.02 mE/l | 122.44 ± 2.01 mE/l | 198.34 ± 9.32 mE/l | 0.245 ± 0.010 nmol/mg of protein | 4.59 ± 0.44 nmol/mg of protein | 7.01 ± 0.82 nmol/mg of protein | 6.94 ± 0.67 nmol/mg of protein | 15.83 ± 1.21 mkmol/ml | 0.294 ± 0.02 nmol/mg of protein | 5.12 ± 0.18 nmol/mg of protein | 5.76 ± 0.94 nmol/mg of protein | 6.72 ± 0.94 nmol/mg of protein | 15.86 ± 1.20 mkmol/ml | 2.84 ± 0.31 pmol/min/mg of protein | 5.93 ± 0.27 pmol/min/mg of protein | 1.99 ± 0.31 pmol/min/mg of protein | 5.24 ± 0.24 pmol/min/mg of protein | 
Nc1ccnc2c(=O)n([C@@H]3O[C@H](CO)[C@@H](O)[C@H]3O)[nH]c(=O)c12 [Compound 2, 4-amino-7-(β-D-ribofuranosile)pyrido[2,3-d]-6H-pyridazine-5,8-dione] |  |  |  |  |  |  |  |  |  |  |  |  |  |  |  |  |  |  |  |  | Bilirubin (urine) ([4]; 50 mg/kg): <5 Mkmol/l; Glucose (urine) ([4]; 50 mg/kg): <5 mmol/L; Ketone bodies (urine) ([4]; 50 mg/kg): <1 mmol/L; Potassium (urine) ([4]; 50 mg/kg): 5.78 ± 1.7 g/L; Protein (urine) ([4]; 50 mg/kg): 0.69 ± 0.33 g/L; Sodium (urine) ([4]; 50 mg/kg): 1.7 ± 0.3 g/L; Urea (urine) ([4]; 50 mg/kg): 457 ± 144 mmol/L; Urobilinogen (urine) ([4]; 50 mg/kg): <16 Mkmol/l; pH (urine) ([4]; 50 mg/kg): 6.1 ± 0.3; Bilirubin (urine) ([4]; 500 mg/kg): <5 Mkmol/l; Glucose (urine) ([4]; 500 mg/kg): <5 mmol/L; Ketone bodies (urine) ([4]; 500 mg/kg): <1 mmol/L; Potassium (urine) ([4]; 500 mg/kg): 6.24 ± 1.8 g/L; Protein (urine) ([4]; 500 mg/kg): 0.76 ± 0.31 g/L; Sodium (urine) ([4]; 500 mg/kg): 1.27 ± 0.3 g/L; Urea (urine) ([4]; 500 mg/kg): 492 ± 187 mmol/L; Urobilinogen (urine) ([4]; 500 mg/kg): <16 Mkmol/l; pH (urine) ([4]; 500 mg/kg): 6.2 ± 0.2
